Reference: ChEMBL document CHEMBL1158947, “Novel Bishomoscalarane Sesterterpenes from the Sponge Phyllospongia foliascens” (J Nat Prod, 1991)
≈ marks a conversion by molar mass, not a printed value. Calls of active or inactive are those of the source. The rule behind the calls is not given here.

Tested on: P388
Assay: Cytotoxicity against mouse P388 cells
Assay type: functional, cell-based

SMILES | Activity | IC50 [µg/mL]
CC[C@@]1(C)CCC[C@]2(C)[C@H]3CC(=O)[C@]4(C)[C@H]5C(=O)O[C@@H](C)[C@@H]5[C@@H](O)C[C@H]4[C@]3(C)CC[C@@H]12 | inactive | 
CC[C@@]1(C)CCC[C@]2(C)[C@H]3C[C@H](O)[C@]4(C)C5=C(CC[C@H]4[C@]3(C)CC[C@@H]12)[C@H](C)OC5=O | inactive | 
CC[C@@]1(C)CCC[C@]2(C)[C@H]3C[C@H](O)[C@]4(C)[C@H]5C=CC(=O)C5=CC[C@H]4[C@]3(C)CC[C@@H]12 [PHYLLOFENONE B] |  | 5 (≈ 12.6 µM)
